Data on 2 compounds can be found in article PMC12948245, “Fluorinated Carnitine Derivatives as Tools to Visualise Carnitine Transport and Metabolism” (Advanced Science, 2025).

Assay [1] concerns the target T1, OCTN2 (Homo sapiens, UniProt O76082).
T1 construct: gene SLC22A5; endogenous full-length transporter in intact H460 cells; identity supported by OCTN2 siRNA knockdown (siRNA L-007456-00-0005)
T1 sequence (O76082 1-557): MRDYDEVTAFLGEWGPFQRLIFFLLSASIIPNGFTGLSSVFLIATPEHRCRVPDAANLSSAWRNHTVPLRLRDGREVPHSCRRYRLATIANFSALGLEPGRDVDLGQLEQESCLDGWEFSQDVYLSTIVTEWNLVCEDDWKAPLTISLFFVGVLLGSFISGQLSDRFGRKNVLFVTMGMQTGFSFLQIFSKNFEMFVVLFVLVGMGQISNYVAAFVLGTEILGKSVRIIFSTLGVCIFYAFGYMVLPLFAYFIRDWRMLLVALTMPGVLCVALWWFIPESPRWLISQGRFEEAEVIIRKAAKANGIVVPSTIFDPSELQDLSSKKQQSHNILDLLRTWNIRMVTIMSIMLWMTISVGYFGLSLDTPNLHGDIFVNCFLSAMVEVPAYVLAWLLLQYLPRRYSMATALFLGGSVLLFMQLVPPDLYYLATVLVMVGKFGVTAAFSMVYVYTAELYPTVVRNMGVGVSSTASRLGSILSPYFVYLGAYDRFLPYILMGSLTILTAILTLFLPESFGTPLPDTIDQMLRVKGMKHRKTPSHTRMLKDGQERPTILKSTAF
Nature of the assay: inhibition of […]FMC uptake in H460 cells by co-incubation. The class given is cell-based. The settings on record: HBSS, 37 °C, 60 min; inhibitor concentration of this test not given.

Assay [2] addresses T1, OCTN2. Put plainly: competitive inhibition of […]FMC uptake in H460 cells, gamma counting. The assay is classed as cell-based. The settings on record: HBSS, 37 °C, 60 min; [18F]FMC as tracer; endogenous transporter; n = 3.

By IC50 is commonly meant the point on the concentration scale where inhibition reaches its midpoint.

As for `C[N+](C)(C)NCCC(=O)[O-]` [meldonium], at OCTN2 [1], the “% reduction of [18F]FMC uptake” value turned out to be 78.1 ± 10.2%.

Take `C[N+](C)(C)C[C@H](O)CC(=O)O` [ʟ-carnitine]: on OCTN2 [2], the IC50 came to 4.8 ± 1.6 µM.
